What was measured:
Format in all cases: functional
[1] = tested on: NCI-H322M; assay: Growth inhibition of human NCI-H322M cells at 10 uM after 48 hrs by sulforhodamine B assay; settings: values are per cent of control
[2] = tested on: T47D; assay: Growth inhibition of human T47D cells at 10 uM after 48 hrs by sulforhodamine B assay; settings: values are per cent of control
[3] = tested on: ACHN; assay: Growth inhibition of human ACHN cells at 10 uM after 48 hrs by sulforhodamine B assay; settings: values are per cent of control
[4] = Growth inhibition of human Hs 578T cells at 10 uM after 48 hrs by sulforhodamine B assay; settings: values are per cent of control
[5] = Growth inhibition of human Caki1 cells at 10 uM after 48 hrs by sulforhodamine B assay; settings: CAKI-1, 48 h, values are per cent of control
[6] = tested on: NCI-H460; assay: Growth inhibition of human NCI-H460 cells at 10 uM after 48 hrs by sulforhodamine B assay; settings: NCI-H460, 48 h, values are per cent of control
[7] = Growth inhibition of human SF295 cells at 10 uM after 48 hrs by sulforhodamine B assay; settings: SF-295, 48 h, values are per cent of control
[8] = tested on: NCI-H23; assay: Growth inhibition of human NCI-H23 cells at 10 uM after 48 hrs by sulforhodamine B assay; settings: NCI-H23, 48 h, values are per cent of control
[9] = tested on: K562; assay: Growth inhibition of human K562 cells at 10 uM after 48 hrs by sulforhodamine B assay; settings: K562, 48 h, values are per cent of control
[10] = Growth inhibition of human SNB19 cells at 10 uM after 48 hrs by sulforhodamine B assay; settings: SNB-19, 48 h, values are per cent of control
[11] = Growth inhibition of human OVCAR4 cells at 10 uM after 48 hrs by sulforhodamine B assay; settings: OVCAR-4, 48 h, values are per cent of control
[12] = tested on: M14; assay: Growth inhibition of human M14 cells at 10 uM after 48 hrs by sulforhodamine B assay; settings: M14, 48 h, values are per cent of control
[13] = tested on: MDA-MB-435; assay: Growth inhibition of human MDA-MB-435 cells at 10 uM after 48 hrs by sulforhodamine B assay; settings: MDA-MB-435, 48 h, values are per cent of control
[14] = tested on: A498; assay: Growth inhibition of human A498 cells at 10 uM after 48 hrs by sulforhodamine B assay; settings: A498, 48 h, values are per cent of control
[15] = tested on: KM12; assay: Growth inhibition of human KM12 cells at 10 uM after 48 hrs by sulforhodamine B assay; settings: KM12, 48 h, values are per cent of control
[16] = Growth inhibition of human OVCAR8 cells at 10 uM after 48 hrs by sulforhodamine B assay; settings: OVCAR-8, 48 h, values are per cent of control
[17] = Growth inhibition of human OVCAR5 cells at 10 uM after 48 hrs by sulforhodamine B assay; settings: OVCAR-5, 48 h, values are per cent of control
[18] = Growth inhibition of human BT549 cells at 10 uM after 48 hrs by sulforhodamine B assay; settings: BT-549, 48 h, values are per cent of control
[19] = tested on: SR; assay: Growth inhibition of human SR cells at 10 uM after 48 hrs by sulforhodamine B assay; settings: values are per cent of control
[20] = Growth inhibition of human SKOV3 cells at 10 uM after 48 hrs by sulforhodamine B assay; settings: SK-OV-3, 48 h, values are per cent of control
[21] = Growth inhibition of human HCT15 cells at 10 uM after 48 hrs by sulforhodamine B assay; settings: HCT-15, 48 h, values are per cent of control
[22] = Growth inhibition of human UACC62 cells at 10 uM after 48 hrs by sulforhodamine B assay; settings: UACC-62, 48 h, values are per cent of control
[23] = tested on: MDA-MB-231; assay: Growth inhibition of human MDA-MB-231 cells at 10 uM after 48 hrs by sulforhodamine B assay; settings: MDA-MB-231, 48 h, values are per cent of control
[24] = Growth inhibition of human DU145 cells at 10 uM after 48 hrs by sulforhodamine B assay; settings: DU-145, 48 h, values are per cent of control
[25] = tested on: NCI-H522; assay: Growth inhibition of human NCI-H522 cells at 10 uM after 48 hrs by sulforhodamine B assay; settings: NCI-H522, 48 h, values are per cent of control
[26] = tested on: SK-MEL-5; assay: Growth inhibition of human SK-MEL-5 cells at 10 uM after 48 hrs by sulforhodamine B assay; settings: SK-MEL-5, 48 h, values are per cent of control
[27] = Growth inhibition of human SF268 cells at 10 uM after 48 hrs by sulforhodamine B assay; settings: SF-268, 48 h, values are per cent of control
[28] = Growth inhibition of human HCT116 cells at 10 uM after 48 hrs by sulforhodamine B assay; settings: HCT-116, 48 h, values are per cent of control
[29] = tested on: NCI-H226; assay: Growth inhibition of human NCI-H226 cells at 10 uM after 48 hrs by sulforhodamine B assay; settings: NCI-H226, 48 h, values are per cent of control
[30] = Growth inhibition of human COLO205 cells at 10 uM after 48 hrs by sulforhodamine B assay; settings: COLO 205, 48 h, values are per cent of control
[31] = tested on: A549; assay: Growth inhibition of human A549/ATCC cells at 10 uM after 48 hrs by sulforhodamine B assay; settings: A549, 48 h, values are per cent of control
[32] = Growth inhibition of human TK10 cells at 10 uM after 48 hrs by sulforhodamine B assay; settings: TK-10, 48 h, values are per cent of control
[33] = Growth inhibition of human SW620 cells at 10 uM after 48 hrs by sulforhodamine B assay; settings: SW-620, 48 h, values are per cent of control
[34] = Growth inhibition of human NCI-ADR-RES cells at 10 uM after 48 hrs by sulforhodamine B assay; settings: values are per cent of control
[35] = tested on: SN12C; assay: Growth inhibition of human SN12C cells at 10 uM after 48 hrs by sulforhodamine B assay; settings: values are per cent of control
[36] = Growth inhibition of human SF539 cells at 10 uM after 48 hrs by sulforhodamine B assay; settings: SF-539, 48 h, values are per cent of control
[37] = Growth inhibition of human LOXIMVI cells at 10 uM after 48 hrs by sulforhodamine B assay; settings: LOX IMVI, values are per cent of control
[38] = tested on: HT-29; assay: Growth inhibition of human HT-29 cells at 10 uM after 48 hrs by sulforhodamine B assay; settings: HT-29, 48 h, values are per cent of control
[39] = tested on: MDA-MB-468; assay: Growth inhibition of human MDA-MB-468 cells at 10 uM after 48 hrs by sulforhodamine B assay; settings: MDA-MB-468, 48 h, values are per cent of control
[40] = tested on: U-251; assay: Growth inhibition of human U251 cells at 10 uM after 48 hrs by sulforhodamine B assay; settings: U-251, 48 h, values are per cent of control

| Compound | growth, % of control at 10 µM [1] [%] | growth, % of control at 10 µM [2] [%] | growth, % of control at 10 µM [3] [%] | growth, % of control at 10 µM [4] [%] | growth, % of control at 10 µM [5] [%] | growth, % of control at 10 µM [6] [%] | growth, % of control at 10 µM [7] [%] | growth, % of control at 10 µM [8] [%] | growth, % of control at 10 µM [9] [%] | growth, % of control at 10 µM [10] [%] | growth, % of control at 10 µM [11] [%] | growth, % of control at 10 µM [12] [%] | growth, % of control at 10 µM [13] [%] | growth, % of control at 10 µM [14] [%] | growth, % of control at 10 µM [15] [%] | growth, % of control at 10 µM [16] [%] | growth, % of control at 10 µM [17] [%] | growth, % of control at 10 µM [18] [%] | growth, % of control at 10 µM [19] [%] | growth, % of control at 10 µM [20] [%] | other results |
| --- | --- | --- | --- | --- | --- | --- | --- | --- | --- | --- | --- | --- | --- | --- | --- | --- | --- | --- | --- | --- | --- |
| COc1cc(/C=C(\C#N)c2ccc3c(c2)OCO3)cc(OC)c1 | 89.5 | 75.6 | 108 | 115 | 96.5 | 102 | 99.2 | 96.6 | 98.7 | 101 | 82.9 | 99.5 | 100 | 88.9 | 94.6 | 92.3 | 111 | 86.4 | 82 | 101 | growth, % of control at 10 µM [21]: 102%; growth, % of control at 10 µM [22]: 86.4%; growth, % of control at 10 µM [23]: 92.5%; growth, % of control at 10 µM [24]: 94.4%; growth, % of control at 10 µM [25]: 87.9%; growth, % of control at 10 µM [26]: 97.3%; growth, % of control at 10 µM [27]: 95.5%; growth, % of control at 10 µM [28]: 96.3%; growth, % of control at 10 µM [29]: 99.8%; growth, % of control at 10 µM [30]: 97.7%; growth, % of control at 10 µM [31]: 84.6%; growth, % of control at 10 µM [32]: 95.6%; growth, % of control at 10 µM [33]: 102%; growth, % of control at 10 µM [34]: 99.7%; growth, % of control at 10 µM [35]: 95.3%; growth, % of control at 10 µM [36]: 104%; growth, % of control at 10 µM [37]: 103%; growth, % of control at 10 µM [38]: 92.4%; growth, % of control at 10 µM [39]: 98.7%; growth, % of control at 10 µM [40]: 93.7% |
| COc1ccc(/C(C#N)=C/c2ccc3c(c2)OCO3)cc1 | 94.7 | 70 | 95.3 | 92.4 | 78.2 | 64.3 | 80.8 | 96.1 | 37.9 | 49.4 | 76.4 | 10.4 | 77.9 | 63.3 | 63.6 | 94.7 | 93.9 | 74.7 | 39.3 | 88.6 | growth, % of control at 10 µM [21]: 59%; growth, % of control at 10 µM [22]: 69.2%; growth, % of control at 10 µM [23]: 68.7%; growth, % of control at 10 µM [24]: 95%; growth, % of control at 10 µM [25]: 90.5%; growth, % of control at 10 µM [26]: 91.4%; growth, % of control at 10 µM [27]: 92%; growth, % of control at 10 µM [28]: 64.9%; growth, % of control at 10 µM [29]: 86.6%; growth, % of control at 10 µM [30]: 76.2%; growth, % of control at 10 µM [31]: 71.2%; growth, % of control at 10 µM [32]: 85.7%; growth, % of control at 10 µM [33]: 84.9%; growth, % of control at 10 µM [34]: 75.3%; growth, % of control at 10 µM [35]: 84.3%; growth, % of control at 10 µM [36]: 83.7%; growth, % of control at 10 µM [37]: 102%; growth, % of control at 10 µM [38]: 64.5%; growth, % of control at 10 µM [39]: 48.6%; growth, % of control at 10 µM [40]: 80.9% |
